From ChEMBL document CHEMBL1201862, “PubChem BioAssay data set” (2004) come the findings set out here.

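Protocol summary: plate cells (96-well), add compound at 5 concentrations, incubate 48 h, interpolate endpoints linearly. Abbreviation: GI50, concentration required for 50% inhibition of growth.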 Activity calls are given as the source filed them. Rule as the data show it: active = GI50 up to about 1.1 µM and inactive = higher.

Among the test systems are UACC-257; UO-31; PC-3; Malme-3M; U-251; OVCAR-3; NCI-H522; ACHN; COLO 205; SN12C; SK-MEL-28; MDA-MB-435; LOX IMVI; MDA-N; SK-MEL-5; SF-295; RXF 393; MDA-MB-231; SW-620; 786-0.
Assay in all cases: inhibition of tumour cell growth, NCI panel, 48 h

Turning to `COc1cc2c[n+](C)c3c4cc(OC)c(OCc5ccccc5)cc4c(OCc4ccccc4)cc3c2cc1OC`, the GI50 was 2.9 µM (inactive) with UACC-257; > 100 µM (inactive) with UO-31; 2.5 µM (inactive) with PC-3; 2.22 µM (inactive) in the test with Malme-3M; 0.449 µM (active) in the test with U-251; 2.51 µM (inactive) in the test on OVCAR-3. Besides, the GI50 is 0.416 µM (active) in the test on NCI-H522; > 75.2 µM (inactive) in the test with ACHN; 0.429 µM (active) in the test with COLO 205; 4.03 µM (inactive) in the test with SN12C; 5.48 µM (inactive) in the test with SK-MEL-28; 1.74 µM (inactive) in the test on MDA-MB-435. Also, the GI50 is 5.3 µM (inactive) with LOX IMVI; 1.23 µM (inactive) in the test on MDA-N; 2.08 µM (inactive) in the test with SK-MEL-5; 25.7 µM (inactive) with SF-295; 12.1 µM (inactive) in the test on RXF 393; 5.02 µM (inactive) in the test on MDA-MB-231. Moreover, the figures for the GI50 in the test on SW-620 and in the test on 786-0 were 3.18 µM (inactive) and 13.2 µM (inactive), respectively.

In the case of `C=C1C(C)C2C(Cc3ccccc3)NC(=O)C23C(OC(C)=O)C=CC(C)(O)C(=O)C(C)C/C=C/C3C1O` (stereo not given), the GI50 with UACC-257 is 6.59 µM (inactive); in the test on UO-31 it was 0.296 µM (active); in the test on PC-3, 11.7 µM (inactive); with Malme-3M it was 30.5 µM (inactive); with U-251, 0.0925 µM (active); in the test on OVCAR-3 it was 22.4 µM (inactive). Besides, the GI50 in the test on NCI-H522 is 2.43 µM (inactive); with ACHN it was 0.889 µM (active); with COLO 205 it was 0.535 µM (active); in the test with SN12C, 39.3 µM (inactive); with SK-MEL-28, 2.47 µM (inactive); in the test with MDA-MB-435 it was 51.1 µM (inactive). Moreover, the GI50 was 0.101 µM (active) in the test on LOX IMVI; 15.6 µM (inactive) in the test with MDA-N; 0.76 µM (active) in the test on SK-MEL-5; 0.366 µM (active) in the test on SF-295; 0.0865 µM (active) with RXF 393; 0.151 µM (active) with MDA-MB-231. In addition, the GI50 in the test with SW-620 is 87.7 µM (inactive); in the test on 786-0 it was 0.311 µM (active).

On to `CCOC(=O)C1=CC(C)(C(=O)OCC)Nc2c(nc(SC)[nH]c2=O)N1` (stereo not given), for which the GI50 in the test on UACC-257, in the test on UO-31, with PC-3, in the test with Malme-3M, with U-251 and in the test on OVCAR-3 was > 10 µM (inactive) in each case. Further, the GI50 in the test with NCI-H522, with ACHN, with COLO 205, in the test with SN12C, in the test with SK-MEL-28 and in the test on MDA-MB-435 was > 10 µM (inactive) throughout. Also, the GI50 in the test with LOX IMVI, in the test with MDA-N, in the test with SK-MEL-5, in the test on SF-295, in the test with RXF 393 and in the test on MDA-MB-231 was > 10 µM (inactive) in each case. For the same compound, the GI50 with SW-620 and in the test with 786-0 was > 10 µM (inactive) throughout.

For the compound `C1CCNCC1.O=C1NC(=S)N/C1=C/c1ccccc1O`, the GI50 in the test on UACC-257 is > 100 µM (inactive); in the test on UO-31 it was 95.3 µM (inactive); in the test with PC-3 it was > 100 µM (inactive); in the test with Malme-3M, > 100 µM (inactive); in the test with U-251, > 100 µM (inactive); in the test on OVCAR-3, > 100 µM (inactive). In addition, the GI50 in the test on NCI-H522 is 92 µM (inactive); in the test on ACHN, > 100 µM (inactive); in the test with COLO 205, > 100 µM (inactive); in the test with SN12C it was > 100 µM (inactive); in the test on SK-MEL-28, > 100 µM (inactive); in the test on MDA-MB-435, > 100 µM (inactive). In addition, the GI50 in the test with LOX IMVI, with MDA-N, in the test on SK-MEL-5, in the test with SF-295, in the test with RXF 393 and in the test on MDA-MB-231 was > 100 µM (inactive) in each case. Also, the GI50 with SW-620 and in the test with 786-0 was > 100 µM (inactive) each time.

Take `CC(=O)Nc1ccc(/N=C2\C(c3ccccc3)=C(SC3=C(c4ccccc4)/C(=N\c4ccc(NC(C)=O)cc4)c4ccccc43)c3ccccc32)cc1`: the GI50 is 46 µM (inactive) in the test with UACC-257; 24.7 µM (inactive) with UO-31; 31.1 µM (inactive) with PC-3; 27.2 µM (inactive) in the test on Malme-3M; 49.8 µM (inactive) with U-251; 27.4 µM (inactive) with OVCAR-3. Moreover, the GI50 in the test on NCI-H522 is 28.4 µM (inactive); in the test with ACHN, 31.8 µM (inactive); with COLO 205, 32 µM (inactive); in the test on SN12C, 61.2 µM (inactive); in the test on SK-MEL-28 it was 32.7 µM (inactive); in the test on MDA-MB-435, 26.5 µM (inactive). Besides, the GI50 in the test with LOX IMVI is 28.8 µM (inactive); in the test with MDA-N, 32.8 µM (inactive); with SK-MEL-5, 15.8 µM (inactive); with SF-295, 31 µM (inactive); in the test with RXF 393 it was 21.6 µM (inactive); in the test with MDA-MB-231, 50.8 µM (inactive). The GI50 is 40.2 µM (inactive) in the test on SW-620 and 37.3 µM (inactive) with 786-0.

As to `O=C1C(NCCO)=C(N2CC2)C(=O)C(NCCO)=C1N1CC1`, the GI50 with UACC-257 was > 74.3 µM (inactive); in the test with UO-31 it was 51.9 µM (inactive); in the test on PC-3 it was > 100 µM (inactive); with Malme-3M it was > 100 µM (inactive); in the test on U-251 it was 31.5 µM (inactive); with OVCAR-3, 33.7 µM (inactive). Moreover, the GI50 was 31.3 µM (inactive) in the test with NCI-H522; 30.8 µM (inactive) with ACHN; > 67.6 µM (inactive) with COLO 205; 26.5 µM (inactive) with SN12C; > 100 µM (inactive) with SK-MEL-28; > 100 µM (inactive) with MDA-MB-435. Further, the GI50 with LOX IMVI was 17.1 µM (inactive); in the test on MDA-N, > 60.4 µM (inactive); in the test on SK-MEL-5 it was 50 µM (inactive); with SF-295, 26.5 µM (inactive); in the test on RXF 393, 71.3 µM (inactive); in the test on MDA-MB-231, > 90.4 µM (inactive). Moreover, the GI50 with SW-620 is 46.8 µM (inactive); in the test on 786-0, 24.4 µM (inactive).

As to `COc1ccc2c(c1OC)C(=O)O[C@@H]2[C@H]1c2c(cc3c(c2OC)OCO3)CCN1C` [NOSCAPINE], the GI50 in the test with UACC-257 is 55.1 µM (inactive); in the test on UO-31, 69 µM (inactive); in the test on PC-3, 50.1 µM (inactive); in the test on Malme-3M it was 33.5 µM (inactive); in the test with U-251 it was 41 µM (inactive); in the test with OVCAR-3, 16.5 µM (inactive). In addition, the GI50 with NCI-H522 was 30.3 µM (inactive); in the test with ACHN it was 62.5 µM (inactive); with COLO 205, 63.5 µM (inactive); with SN12C, > 100 µM (inactive); with SK-MEL-28, 42.1 µM (inactive); in the test on MDA-MB-435, 4.86 µM (inactive). Also, the GI50 with LOX IMVI is 37.2 µM (inactive); in the test on MDA-N, 23.1 µM (inactive); with SK-MEL-5, 48.3 µM (inactive); in the test with SF-295 it was 30.3 µM (inactive); in the test on RXF 393, > 100 µM (inactive); in the test with MDA-MB-231, 76.6 µM (inactive). Besides, the GI50 is 27 µM (inactive) in the test with SW-620 and 49.9 µM (inactive) in the test with 786-0.
